Assay results published in patent US7238701B2, “Substituted tetrahydrobenzothienopyrimidinamine compounds useful for treating hyper-proliferative disorders” (Bayer Pharmaceuticals Corporation, priority 2003, dated 2007).

Assays:
[1] = system: BT474 (human breast carcinoma); assay: In vitro tumor cell proliferation assay (Cell Titer-Glo luminescent cell viability), BT474 cells; type: cell-based; settings: BT-474, 72 hours drug exposure, 10% Fetal Bovine Serum, ATP luminescence readout, read-out: IC50 (50% inhibition of cell proliferation)
How it was run: (§1)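 ATP luminescence (CellTiter-Glo) measured proliferation after 72 h compound exposure at 37 °C, giving IC50 values. Serial dilutions spanning 64 pM–100 μM in 0.1% DMSO were applied one day after plating 2.5×10^3 cells/well in RPMI plus 10% fetal bovine serum.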

[2] = system: A431cells (human epidermoid carcinoma); assay: In vitro tumor cell proliferation assay (Cell Titer-Glo luminescent cell viability), A431 cells; type: cell-based; settings: A-431, 72 h, 72 hours drug exposure, 10% Fetal Bovine Serum, ATP luminescence readout, read-out: IC50 (50% inhibition of cell proliferation)
How it was run: as §1

IC50 [1] [µM]	IC50 [2] [µM]	SMILES
< 5	< 5	CS(=O)(=O)CCNCCC1CCc2c(sc3ncnc(Nc4ccc(F)c(Cl)c4)c23)C1 (stereo not drawn) [Example 97, N-(3-chloro-4-fluorophenyl)-7-(2-{[(2-methylsulfonyl)ethyl]amino}ethyl)-5,6,7,8-tetrahydro[1]benzothieno[2,3-d]pyrimidin-4-amine]
< 5	< 5	CN(C)CCNCCC1CCc2c(sc3ncnc(Nc4ccc(F)c(Cl)c4)c23)C1 (stereo not drawn) [Example 98, N^1-(2-{4-[(3-chloro-4-fluorophenyl)amino]-5,6,7,8-tetrahydro[1]benzothieno[2,3-d]pyrimidin-7-yl}ethyl)-N^2,N^2-dimethyl-1,2-ethanediamine]
< 5	< 50	Fc1ccc(Nc2ncnc3sc4c(c23)CCC(CCN2CCN(Cc3ccncc3)CC2)C4)cc1Cl (stereo not drawn) [Example 99, N-(3-chloro-4-fluorophenyl)-7-{2-[4-(4-pyridinylmethyl)-1-piperazinyl]ethyl}-5,6,7,8-tetrahydro[1]benzothieno[2,3-d]pyrimidin-4-amine]
< 50	< 50	CN(C)[C@@H]1CCN(CCC2CCc3c(sc4ncnc(Nc5ccc(F)c(Cl)c5)c34)C2)C1 (stereo partly drawn) [Example 100, N-(3-chloro-4-fluorophenyl)-7-{2-[(3R)-3-(dimethylamino)-1-pyrrolidinyl]ethyl}-5,6,7,8-tetrahydro[1]benzothieno[2,3-d]pyrimidin-4-amine]
< 5	< 50	COCCC1CCc2c(sc3ncnc(Nc4ccc(F)c(Cl)c4)c23)C1 (stereo not drawn) [Example 101, N-(3-chloro-4-fluorophenyl)-7-(2-methoxyethyl)-5,6,7,8-tetrahydro[1]benzothieno[2,3-d]pyrimidin-4-amine]
< 50	< 50	OCCC1CCc2c(sc3ncnc(Nc4cccc(Br)c4)c23)C1 (stereo not drawn) [Example 102, 2-{4-[(3-bromophenyl)amino]-5,6,7,8-tetrahydro[1]benzothieno[2,3-d]pyrimidin-7-yl}ethanol]
< 5	< 50	O=C(CC1CCc2c(sc3ncnc(Nc4cccc(Br)c4)c23)C1)N1CCN(Cc2ccncc2)CC1 (stereo not drawn) [Example 103, N-(3-bromophenyl)-7-{2-oxo-2-[4-(4-pyridinylmethyl)-1-piperazinyl]ethyl}-5,6,7,8-tetrahydro[1]benzothieno[2,3-d]pyrimidin-4-amine]
< 5	< 5	CN1CCN(C(=O)CC2CCc3c(sc4ncnc(Nc5ccc(Br)cc5F)c34)C2)CC1 (stereo not drawn) [Example 105, N-(4-bromo-2-fluorophenyl)-7-[2-(4-methyl-1-piperazinyl)-2-oxoethyl]-5,6,7,8-tetrahydro[1]benzothieno[2,3-d]pyrimidin-4-amine]
< 5	< 50	CCOC(=O)CC1CCc2c(sc3ncnc(Nc4ccc(OCc5cccc(F)c5)c(Cl)c4)c23)C1 (stereo not drawn) [Example 136, {4-[3-Chloro-4-(3-fluoro-benzyloxy)-phenylamino]-5,6,7,8-tetrahydro-benzo[4,5]thieno[2,3-d]pyrimidin-7-yl}-acetic acid ethyl ester]
< 5	< 50	OCCC1CCc2c(sc3ncnc(Nc4ccc(OCc5cccc(F)c5)c(Cl)c4)c23)C1 (stereo not drawn) [Example 137, 2-{4-[3-Chloro-4-(3-fluoro-benzyloxy)-phenylamino]-5,6,7,8-tetrahydro-benzo[4,5]thieno[2,3-d]pyrimidin-7-yl}-ethanol]
< 5	< 50	Fc1cccc(COc2ccc(Nc3ncnc4sc5c(c34)CCC(CCBr)C5)cc2Cl)c1 (stereo not drawn) [Example 138, [7-(2-Bromo-ethyl)-5,6,7,8-tetrahydro-benzo[4,5]thieno[2,3-d]pyrimidin-4-yl]-[3-chloro-4-(3-fluoro-benzyloxy)-phenyl]-amine]
< 5	< 5	Fc1cccc(COc2ccc(Nc3ncnc4sc5c(c34)CCC(CCN3CCOCC3)C5)cc2Cl)c1 (stereo not drawn) [Example 139, N-{3-chloro-4-[(3-fluorobenzyl)oxy]phenyl}-7-(2-morpholin-4-ylethyl)-5,6,7,8-tetrahydro[1]benzothieno[2,3-d]pyrimidin-4-amine]
< 5	< 5	CN(C)[C@H]1CCN(CCC2CCc3c(sc4ncnc(Nc5ccc(OCc6cccc(F)c6)c(Cl)c5)c34)C2)C1 (stereo partly drawn) [Example 140, N-{3-chloro-4-[(3-fluorobenzyl)oxy]phenyl}-7-{2-[(3S)-3-(dimethylamino)pyrrolidin-1-yl]ethyl}-5,6,7,8-tetrahydro[1]benzothieno[2,3-d]pyrimidin-4-amine]
< 5	< 5	CN(C)[C@H]1CCN(CCC2CCc3c(sc4ncnc(Nc5ccc(OCc6ccccn6)c(Cl)c5)c34)C2)C1 (stereo partly drawn) [Example 141, N-[3-chloro-4-(pyridin-2-ylmethoxy)phenyl]-7-{2-[(3S)-3-(dimethylamino)pyrrolidin-1-yl]ethyl}-5,6,7,8-tetrahydro[1]benzothieno[2,3-d]pyrimidin-4-amine]
< 5	< 5	COCCNCCC1CCc2c(sc3ncnc(Nc4ccc(OCc5cccc(F)c5)c(Cl)c4)c23)C1 (stereo not drawn) [Example 142, N-{3-chloro-4-[(3-fluorobenzyl)oxy]phenyl}-7-{2-[(2-methoxyethyl)amino]ethyl}-5,6,7,8-tetrahydro[1]benzothieno[2,3-d]pyrimidin-4-amine]
< 5	< 50	CCOC(=O)CC1CCc2c(sc3ncnc(Nc4ccc(OCc5ccc(F)cc5)c(Cl)c4)c23)C1 (stereo not drawn) [Example 143, ethyl [4-({3-chloro-4-[(4-fluorobenzyl)oxy]phenyl}amino)-5,6,7,8-tetrahydro[1]benzothieno[2,3-d]pyrimidin-7-yl]acetate]
< 50	< 50	O=C(CC1CCc2c(sc3ncnc(Nc4ccc(OCc5ccc(F)cc5)c(Cl)c4)c23)C1)N1CCOCC1 (stereo not drawn) [Example 144, N-{3-chloro-4-[(4-fluorobenzyl)oxy]phenyl}-7-(2-morpholin-4-yl-2-oxoethyl)-5,6,7,8-tetrahydro[1]benzothieno[2,3-d]pyrimidin-4-amine]
< 50	< 50	COCCNC(=O)CC1CCc2c(sc3ncnc(Nc4ccc(OCc5ccc(F)cc5)c(Cl)c4)c23)C1 (stereo not drawn) [Example 146, 2-[4-({3-chloro-4-[(4-fluorobenzyl)oxy]phenyl}amino)-5,6,7,8-tetrahydro[1]benzothieno[2,3-d]pyrimidin-7-yl]-N-(2-methoxyethyl)acetamide]
< 50	< 50	CS(=O)(=O)CCNC(=O)CC1CCc2c(sc3ncnc(Nc4ccc(OCc5ccc(F)cc5)c(Cl)c4)c23)C1 (stereo not drawn) [Example 147, 2-[4-({3-chloro-4-[(4-fluorobenzyl)oxy]phenyl}amino)-5,6,7,8-tetrahydro[1]benzothieno[2,3-d]pyrimidin-7-yl]-N-[2-(methylsulfonyl)ethyl]acetamide]
< 5	< 5	CN(C)[C@H]1CCN(C(=O)CC2CCc3c(sc4ncnc(Nc5ccc(OCc6ccc(F)cc6)c(Cl)c5)c34)C2)C1 (stereo partly drawn) [Example 148, N-{3-chloro-4-[(4-fluorobenzyl)oxy]phenyl}-7-{2-[(3S)-3-(dimethylamino)pyrrolidin-1-yl]-2-oxoethyl}-5,6,7,8-tetrahydro[1]benzothieno[2,3-d]pyrimidin-4-amine]
< 50	< 50	O=C(CC1CCc2c(sc3ncnc(Nc4ccc(OCc5ccc(F)cc5)c(Cl)c4)c23)C1)N1CCCC1 (stereo not drawn) [Example 149, N-{3-chloro-4-[(4-fluorobenzyl)oxy]phenyl}-7-(2-oxo-2-pyrrolidin-1-ylethyl)-5,6,7,8-tetrahydro[1]benzothieno[2,3-d]pyrimidin-4-amine]
< 5	< 5	CN1CCN(C(=O)CC2CCc3c(sc4ncnc(Nc5ccc(OCc6ccc(F)cc6)c(Cl)c5)c34)C2)CC1 (stereo not drawn) [Example 150, N-{3-chloro-4-[(4-fluorobenzyl)oxy]phenyl}-7-[2-(4-methylpiperazin-1-yl)-2-oxoethyl]-5,6,7,8-tetrahydro[1]benzothieno[2,3-d]pyrimidin-4-amine]
< 50	< 50	COCCN(C)C(=O)CC1CCc2c(sc3ncnc(Nc4ccc(OCc5ccc(F)cc5)c(Cl)c4)c23)C1 (stereo not drawn) [Example 151, 2-[4-({3-chloro-4-[(4-fluorobenzyl)oxy]phenyl}amino)-5,6,7,8-tetrahydro[1]benzothieno[2,3-d]pyrimidin-7-yl]-N-(2-methoxyethyl)-N-methylacetamide]
< 5	< 5	COCCN(C)CCC1CCc2c(sc3ncnc(Nc4ccc(OCc5ccc(F)cc5)c(Cl)c4)c23)C1 (stereo not drawn) [Example 152, N-{3-chloro-4-[(4-fluorobenzyl)oxy]phenyl}-7-{2-[(2-methoxyethyl)(methyl)amino]ethyl}-5,6,7,8-tetrahydro[1]benzothieno[2,3-d]pyrimidin-4-amine]
< 5	< 5	Fc1ccc(COc2ccc(Nc3ncnc4sc5c(c34)CCC(CCN3CCCC3)C5)cc2Cl)cc1 (stereo not drawn) [Example 153, N-{3-chloro-4-[(4-fluorobenzyl)oxy]phenyl}-7-(2-pyrrolidin-1-ylethyl)-5,6,7,8-tetrahydro[1]benzothieno[2,3-d]pyrimidin-4-amine]
< 5	< 5	CN1CCN(CCC2CCc3c(sc4ncnc(Nc5ccc(OCc6ccc(F)cc6)c(Cl)c5)c34)C2)CC1 (stereo not drawn) [Example 154, N-{3-chloro-4-[(4-fluorobenzyl)oxy]phenyl}-7-[2-(4-methylpiperazin-1-yl)ethyl]-5,6,7,8-tetrahydro[1]benzothieno[2,3-d]pyrimidin-4-amine]
< 5	< 5	CN(C)[C@H]1CCN(CCC2CCc3c(sc4ncnc(Nc5ccc(OCc6ccc(F)cc6)c(Cl)c5)c34)C2)C1 (stereo partly drawn) [Example 157, N-{3-chloro-4-[(4-fluorobenzyl)oxy]phenyl}-7-{2-[(3S)-3-(dimethylamino)pyrrolidin-1-yl]ethyl}-5,6,7,8-tetrahydro[1]benzothieno[2,3-d]pyrimidin-4-amine]
